Test results taken from patent publication US11866450B2, “Modulators of Cystic Fibrosis Transmembrane Conductance regulator, pharmaceutical compositions, methods of treatment, and process for making the modulators” (priority 2018, dated 2024).
Values joined by “and” are separate entries in the source; they are usually repeats but may differ in a detail not shown here. Equal values may be shown once. Read-outs that look alike come from different tables or passages of the source.

Assays:
[1] = snar bond, DMSO
[2] = target: CFTR-mediated chloride transport (Homo sapiens, UniProt P13569); format: cell-based; conditions: enteroid cells incubated with test compound 18-24 hours, acute 10 μM forskolin and 300 nM Compound III; for Max. Activity: % of chloride transport with 3 μM Compound A, 3 μM Compound II and 300 nM acute Compound III triple combination control
Method in brief: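 Membrane-potential fluorescence AUC over 15 min quantified CFTR chloride transport after acute forskolin (10 μM), IBMX (100 μM) and Compound III (300 nM) in chloride-free buffer. Human enteroid cells were pretreated with compound for 18–24 h; % Activity is relative to 3 μM Compound A + 3 μM Compound II + 300 nM Compound III.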

Chain of CFTR-mediated chloride transport (P13569 whole entry, looked up): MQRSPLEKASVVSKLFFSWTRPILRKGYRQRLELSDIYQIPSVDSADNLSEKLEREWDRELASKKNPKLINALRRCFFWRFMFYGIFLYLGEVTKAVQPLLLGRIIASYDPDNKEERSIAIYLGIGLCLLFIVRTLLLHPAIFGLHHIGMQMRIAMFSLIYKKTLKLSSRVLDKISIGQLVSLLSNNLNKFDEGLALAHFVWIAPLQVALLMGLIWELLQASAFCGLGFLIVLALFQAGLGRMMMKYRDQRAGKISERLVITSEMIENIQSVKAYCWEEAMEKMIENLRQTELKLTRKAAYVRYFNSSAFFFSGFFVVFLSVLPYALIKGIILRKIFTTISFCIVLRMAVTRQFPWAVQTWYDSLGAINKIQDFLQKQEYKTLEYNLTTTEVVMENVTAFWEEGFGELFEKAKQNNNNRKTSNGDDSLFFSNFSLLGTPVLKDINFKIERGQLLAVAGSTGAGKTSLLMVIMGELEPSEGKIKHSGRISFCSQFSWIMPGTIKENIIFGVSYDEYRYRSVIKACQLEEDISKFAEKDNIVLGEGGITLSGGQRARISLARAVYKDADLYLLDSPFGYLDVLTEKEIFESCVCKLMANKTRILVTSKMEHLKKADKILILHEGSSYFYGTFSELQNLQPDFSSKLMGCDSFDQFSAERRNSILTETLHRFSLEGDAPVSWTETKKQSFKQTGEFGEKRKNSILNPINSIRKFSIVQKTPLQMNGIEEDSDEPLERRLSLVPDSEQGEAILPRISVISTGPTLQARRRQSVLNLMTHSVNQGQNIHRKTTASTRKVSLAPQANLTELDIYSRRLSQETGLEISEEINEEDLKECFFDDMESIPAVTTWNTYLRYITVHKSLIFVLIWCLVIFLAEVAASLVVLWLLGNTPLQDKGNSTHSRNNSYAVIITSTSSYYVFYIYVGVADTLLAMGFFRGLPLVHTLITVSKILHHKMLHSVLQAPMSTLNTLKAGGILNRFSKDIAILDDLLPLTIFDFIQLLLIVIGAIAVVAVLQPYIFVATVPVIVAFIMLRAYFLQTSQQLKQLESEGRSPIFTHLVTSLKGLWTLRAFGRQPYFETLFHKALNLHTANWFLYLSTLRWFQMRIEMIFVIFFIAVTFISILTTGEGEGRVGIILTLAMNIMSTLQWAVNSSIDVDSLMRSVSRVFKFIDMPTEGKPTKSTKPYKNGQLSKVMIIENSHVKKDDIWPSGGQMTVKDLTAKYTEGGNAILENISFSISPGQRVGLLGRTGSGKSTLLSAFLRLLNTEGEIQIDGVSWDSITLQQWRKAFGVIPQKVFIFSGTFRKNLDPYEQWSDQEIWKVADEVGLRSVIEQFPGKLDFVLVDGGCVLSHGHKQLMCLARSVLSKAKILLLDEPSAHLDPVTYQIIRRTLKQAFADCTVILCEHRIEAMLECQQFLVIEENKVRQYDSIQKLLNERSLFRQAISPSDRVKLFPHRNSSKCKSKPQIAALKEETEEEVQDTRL

SMILES | EC50 [2] [µM] | Max. Activity [2] | other results
CC1(C)CC2CCCNc3ccc(cn3)S(=O)(=O)NC(=O)c3ccc(-n4ccc(OCCC5(C(F)(F)F)CC5)n4)nc3N1C2 (racemic) [Compound 62, 12,12-Dimethyl-8-(3-{2-[1-(trifluoromethyl)cyclopropyl]ethoxy}-1H-pyrazol-1-yl)-2λ^6-thia-3,9,11,18,20-pentaazatetracyclo[17.2.2.111,14.05,10]tetracosa-1(22),5,7,9,19(23),20-hexaene-2,2,4-trione] | < 1 | +++ (+++ is >60%) | ring closure, yield after HPLC ([1]; from CC1(C)CC(CCCNc2ccc(S(=O)(=O)NC(=O)c3ccc(-n4ccc(OCCC5(C(F)(F)F)CC5)n4)nc3Cl)cn2)CN1, 16-membered ring, K2CO3/CsF/3A MS, 37.3 mM, 165.0 °C, 19.0 h): 6%
CC1(C)CC2CCn3ccc(n3)S(=O)(=O)NC(=O)c3ccc(-n4ccc(OCCCC5(C(F)(F)F)CC5)n4)nc3N1C2 (stereo not drawn) [Compound 273, 19,19-Dimethyl-4-(3-{3-[1-(trifluoromethyl)cyclopropyl]propoxy}-1H-pyrazol-1-yl)-10λ^6-thia-1,3,9,14,21-pentaazatetracyclo[15.2.1.111,14.02,7]henicosa-2,4,6,11(21),12-pentaene-8,10,10-trione] | < 1 | + (+ is <30%) | ring closure, yield after HPLC ([1]; from CC1(C)CC(CCn2ccc(S(=O)(=O)NC(=O)c3ccc(-n4ccc(OCCCC5(C(F)(F)F)CC5)n4)nc3Cl)n2)CN1, 13-membered ring, K2CO3/CsF/3A MS, 25.5 mM, 150.0 °C): 11%
CC1(C)CC2CCCCNc3cccc(n3)S(=O)(=O)NC(=O)c3ccc(-n4cc(OCCC5(C(F)(F)F)CC5)cn4)nc3N1C2 (racemic) [Compound 70, 12,12-Dimethyl-8-(4-{2-[1-(trifluoromethyl)cyclopropyl]ethoxy}-1H-pyrazol-1-yl)-2λ^6-thia-3,9,11,19,24-pentaazatetracyclo[18.3.1.111,14.05,10]pentacosa-1(23),5,7,9,20(24),21-hexaene-2,2,4-trione] | < 1 | ++ (++ is 30-60%) | ring closure, yield after HPLC ([1]; from CC1(C)CC(CCCCNc2cccc(S(=O)(=O)NC(=O)c3ccc(-n4cc(OCCC5(C(F)(F)F)CC5)cn4)nc3Cl)n2)CN1, 16-membered ring, K2CO3/CsF/3A MS, 164.4 mM, 150.0 °C): 24%
Cc1nn2cc1S(=O)(=O)NC(=O)c1ccc(-n3ccc(OCCC4(C(F)(F)F)CC4)n3)nc1N1CC(CCCC2)CC1(C)C (stereo not drawn) [Compound 71, 12,21,21-trimethyl-4-(3-{2-[1-(trifluoromethyl)cyclopropyl]ethoxy}-1H-pyrazol-1-yl)-10λ^6-thia-1,3,9,13,14-pentaazatetracyclo[17.2.1.111,14.02,7]tricosa-2,4,6,11(23),12-pentaene-8,10,10-trione] | > 3 | + (+ is <30%) | ring closure, yield after HPLC ([1]; from Cc1nn(CCCCC2CNC(C)(C)C2)cc1S(=O)(=O)NC(=O)c1ccc(-n2ccc(OCCC3(C(F)(F)F)CC3)n2)nc1Cl, 15-membered ring, K2CO3/CsF, 130.1 mM, 150.0 °C): 50%
CC(C)C(COc1ccn(-c2ccc3c(n2)N2C[C@@H](CCCNc4cccc(n4)S(=O)(=O)NC3=O)CC2(C)C)n1)C(C)C [Compound 227, (14S)-12,12-Dimethyl-8-{3-[3-methyl-2-(propan-2-yl)butoxy]-1H-pyrazol-1-yl}-2λ^6-thia-3,9,11,18,23-pentaazatetracyclo[17.3.1.111,14.05,10]tetracosa-1(23),5(10),6,8,19,21-hexaene-2,2,4-trione] | < 1 | +++ (+++ is >60%) | ring closure, yield after HPLC ([1]; from CC(C)C(COc1ccn(-c2ccc(C(=O)NS(=O)(=O)c3cccc(NCCC[C@@H]4CNC(C)(C)C4)n3)c(Cl)n2)n1)C(C)C, 15-membered ring, K2CO3/CsF/4A MS, 73.3 mM, 150.0 °C): 20%
CC1(C)CC2CCCNc3cccc(n3)S(=O)(=O)NC(=O)c3ccc(-n4ccc(OCCC(C5CC5)C5CC5)n4)nc3N1C2 (stereo not drawn) [Compound 43, 8-[3-(3,3-dicyclopropylpropoxy)-1H-pyrazol-1-yl]-12,12-dimethyl-2λ^6-thia-3,9,11,18,23-pentaazatetracyclo[17.3.1.111,14.05,10]tetracosa-1(22),5,7,9,19(23),20-hexaene-2,2,4-trione] | < 1 | +++ (+++ is >60%) | ring closure, yield after HPLC ([1]; from CC1(C)CC(CCCNc2cccc(S(=O)(=O)NC(=O)c3ccc(-n4ccc(OCCC(C5CC5)C5CC5)n4)nc3Cl)n2)CN1, 15-membered ring, K2CO3/CsF/3A MS, 26.4 mM, 130.0 °C, 2 steps): 55%
CC1(C)CC2CCCCNc3ccc(cn3)S(=O)(=O)NC(=O)c3ccc(-n4ccc(OCCC(C5CC5)C5CC5)n4)nc3N1C2 (stereo not drawn) [Compound 130, 8-[3-(3,3-Dicyclopropylpropoxy)-1H-pyrazol-1-yl]-12,12-dimethyl-2λ^6-thia-3,9,11,19,21-pentaazatetracyclo[18.2.2.111,14.05,10]pentacosa-1(22),5,7,9,20,23-hexaene-2,2,4-trione] | < 1 | +++ (+++ is >60%) | ring closure, yield after HPLC ([1]; from CC(C)(C)OC(=O)N1CC(CCCCNc2ccc(S(=O)(=O)NC(=O)c3ccc(-n4ccc(OCCC(C5CC5)C5CC5)n4)nc3Cl)cn2)CC1(C)C, 17-membered ring, K2CO3/CsF/3A MS, 107.7 mM, 160.0 °C, 2 steps): 15%
CC1(C)CC2CCCn3ccc(n3)S(=O)(=O)NC(=O)c3ccc(-n4ccc(OCCC(C5CC5)C5CC5)n4)nc3N1C2 (stereo not drawn) [Compound 141, 4-[3-(3,3-Dicyclopropylpropoxy)-1H-pyrazol-1-yl]-20,20-dimethyl-10λ^6-thia-1,3,9,14,22-pentaazatetracyclo[16.2.1.111,14.02,7]docosa-2,4,6,11(22),12-pentaene-8,10,10-trione] | < 1 | +++ (+++ is >60%) | ring closure, yield after HPLC ([1]; from CC(C)(C)OC(=O)N1CC(CCCn2ccc(S(=O)(=O)NC(=O)c3ccc(-n4ccc(OCCC(C5CC5)C5CC5)n4)nc3Cl)n2)CC1(C)C, 14-membered ring, K2CO3/CsF/3A MS, 66.2 mM, 150.0 °C, 2 steps): 23% and 22%
Cc1ccc2nc1S(=O)(=O)NC(=O)c1ccc(-n3ccc(OCCC4(C(F)(F)F)CC4)n3)nc1N1CC(CCCN2)CC1(C)C (stereo not drawn) [Compound 129, 12,12,22-Trimethyl-8-(3-{2-[1-(trifluoromethyl)cyclopropyl]ethoxy}-1H-pyrazol-1-yl)-2λ^6-thia-3,9,11,18,23-pentaazatetracyclo[17.3.1.111,14.05,10]tetracosa-1(23),5(10),6,8,19,21-hexaene-2,2,4-trione] | < 1 | +++ (+++ is >60%) | ring closure, yield after HPLC ([1]; from Cc1ccc(NCCCC2CN(C(=O)OC(C)(C)C)C(C)(C)C2)nc1S(=O)(=O)NC(=O)c1ccc(-n2ccc(OCCC3(C(F)(F)F)CC3)n2)nc1Cl, 15-membered ring, K2CO3/CsF/3A MS, 79.1 mM, 140.0 °C, 2 steps): 34%
CC1(C)C[C@@H]2CCCOc3cccc(c3)S(=O)(=O)NC(=O)c3ccc(-n4ccc(OCCC5(C(F)(F)F)CC5)n4)nc3N1C2 [Compound 77, (14S)-12,12-Dimethyl-8-(3-{2-[1-(trifluoromethyl)cyclopropyl]ethoxy}-1H-pyrazol-1-yl)-18-oxa-2λ^6-thia-3,9,11-triazatetracyclo[17.3.1.111,14.05,10]tetracosa-1(23),5(10),6,8,19,21-hexaene-2,2,4-trione] | < 1 | +++ (+++ is >60%) | ring closure, yield after HPLC ([1]; from CC1(C)C[C@H](CCCOc2cccc(S(=O)(=O)NC(=O)c3ccc(-n4ccc(OCCC5(C(F)(F)F)CC5)n4)nc3Cl)c2)CN1, 15-membered ring, K2CO3/CsF/3A MS, 62.9 mM, 150.0 °C, 20.0 h, 2 steps): 20%
CC1(C)CCC2CCCOc3cccc(n3)S(=O)(=O)NC(=O)c3ccc(-n4ccc(OCCC5(C(F)(F)F)CC5)n4)nc3N21 (stereo not drawn) [Compound 147, 12,12-dimethyl-8-(3-{2-[1-(trifluoromethyl)cyclopropyl]ethoxy}-1H-pyrazol-1-yl)-19-oxa-2λ^6-thia-3,9,11,24-tetraazatetracyclo[18.3.1.05,10.011,15]tetracosa-1(24),5(10),6,8,20,22-hexaene-2,2,4-trione] | < 1 | ++ (++ is 30-60%) | ring closure, yield after HPLC ([1]; from CC(C)(C)OC(=O)N1C(CCCOc2cccc(S(=O)(=O)NC(=O)c3ccc(-n4ccc(OCCC5(C(F)(F)F)CC5)n4)nc3Cl)n2)CCC1(C)C, 14-membered ring, K2CO3/CsF/3A MS, 66.1 mM, 140.0 °C, 2 steps): 5%
CC1(C)C[C@@H]2CCCNc3cccc(n3)S(=O)(=O)NC(=O)c3ccc(-n4ccc(OCCC(C5CCC5)C5CCC5)n4)nc3N1C2 [Compound 231, (14S)-8-[3-(3,3-dicyclobutylpropoxy)-1H-pyrazol-1-yl]-12,12-dimethyl-2λ^6-thia-3,9,11,18,23-pentaazatetracyclo[17.3.1.111,14.05,10]tetracosa-1(22),5,7,9,19(23),20-hexaene-2,2,4-trione] | < 1 | +++ (+++ is >60%) | ring closure, yield after HPLC ([1]; from CC1(C)C[C@H](CCCNc2cccc(S(=O)(=O)NC(=O)c3ccc(-n4ccc(OCCC(C5CCC5)C5CCC5)n4)nc3Cl)n2)CN1, 15-membered ring, K2CO3/CsF/3A MS, 21.1 mM, 165.0 °C, 16.0 h): 32%
CC1(C)CC2CN1c1nc(-n3ccc(OCCC4(C(F)(F)F)CC4)n3)ccc1C(=O)NS(=O)(=O)c1cccc(n1)NCCO2 (stereo not drawn) [Compound 69, 12,12-dimethyl-8-(3-{2-[1-(trifluoromethyl)cyclopropyl]ethoxy}-1H-pyrazol-1-yl)-15-oxa-2λ^6-thia-3,9,11,18,23-pentaazatetracyclo[17.3.1.111,14.05,10]tetracosa-1(22),5(10),6,8,19(23),20-hexaene-2,2,4-trione] | < 1 | +++ (+++ is >60%) | ring closure, yield after HPLC ([1]; from CC(C)(C)OC(=O)N1CC(OCCNc2cccc(S(=O)(=O)NC(=O)c3ccc(-n4ccc(OCCC5(C(F)(F)F)CC5)n4)nc3Cl)n2)CC1(C)C, 15-membered ring, HCl (Boc off), K2CO3/CsF/3A MS, 62.3 mM, 150.0 °C, 2 steps): 61%
